# Reference: BindingDB's records for doi:10.1021/jm010576e (Chiba University, 2002)
# Assay: Binding affinity using guinea pig brain membrane preparations, towards Opioid receptor delta 1 using [3H]DPDPE as radioligand
row,SMILES,Ki [nM]
1,CC[C@@H]1CN2CCc3c([nH]c4cccc(O)c34)[C@@H]2C[C@@H]1/C(=C\OC)C(=O)OC,30900
2,CC[C@@H]1CN2CC[C@@]3(O)C(=Nc4cccc(OC)c43)[C@@H]2C[C@@H]1/C(=C\OC)C(=O)OC,155
3,CC[C@@H]1CN2CCc3c([nH]c4cccc(OC)c34)[C@@H]2C[C@@H]1/C(=C\OC)C(=O)OC [CHEBI:6956],60
4,CC[C@@H]1CN2CCc3c([nH]c4ccccc34)[C@@H]2C[C@@H]1/C(=C\OC)C(=O)OC [CHEBI:70073],2880
